Reference: US12329756B2, “Regulation of eIF4E activity for migraine therapy” (Board of Regents, The University of Texas System, priority 2020, dated 2025)

What was measured:
female ICR mice = experiment: dural IL-6 facial hypersensitivity and hyperalgesic priming model (von Frey facial withdrawal threshold); format: in vivo; details: for hyperalgesic priming: response to second dural stimulus SIF pH 7.0: 25 μg dural co-injection with 0.1 ng IL-6, pH 7.0 given after return to baseline; for acute facial mechanical hypersensitivity after dural IL-6: 25 μg dural co-injection with 0.1 ng IL-6, versus IL-6 alone
Procedure: Mice received a dural injection of interleukin-6 in the absence or presence of the protein synthesis inhibitor anisomycin or the translation initiation inhibitor 4EGI-1 and were tested for facial hypersensitivity. Upon returning to baseline, mice were given a second, non-noxious dural injection of pH 7.0 to test for priming. Additionally, eIF4ES209A mice lacking phosphorylation of mRNA cap-binding protein eIF4E received dural interleukin-6 or were subjected to repeated restraint stress and then tested for facial hypersensitivity. After returning to baseline, mice were given either dural pH 7.0 or a systemic sub-threshold dose of the nitric oxide donor sodium nitroprusside and tested for priming.
First female mice were administered either 0.1 ng of IL-6, 25 μg of anisomycin (a general protein synthesis inhibitor), or a co-injection of both onto the dura to induce mechanical facial allodynia that persisted for more than 24 h and resolved by 72 h (FIG. 2). Upon returning to baseline, a second stimulus, SIF (pH 7.0), was administered onto the dura to reveal the presence of hyperalgesic priming from the initial IL-6 stimulus. […] This hypersensitivity persisted for more than 5 h.
Similar to the experiments used to generate FIG. 2, 0.1 ng of IL-6, 25 μg of 4EGI-1, a compound that mimics the activity of 4E-BP1, or a co-injection of both was administered onto the dura of female mice (FIG. 3). The resulting mechanical allodynia induced by IL-6 persisted for more than 24 h and resolved after 72 h. Upon returning to baseline, mice were exposed to a dural injection of low pH. […] Thus, assembly of the eIF4F complex locally in the dura appears to be critical to the development of long-lasting mechanical hypersensitivity following repeated stress.
Human recombinant IL-6 protein (R&D Systems) stock solution (100 mg/mL) was prepared in sterile 0.1% BSA and diluted to 1 ng/mL in synthetic interstitial fluid (SIF) consisting of 135 mM NaCl, 5 mM KCl, 10 mM HEPES, 2 mM CaCl2, 10 mM glucose, 1 mM MgCl2 (pH 7.4, 310 mOsm). Anisomycin (Tocris) stock solution (135 mg/mL) and 4EGI-1 (Enzo) stock solution (20 mg/mL) were both prepared in sterile 0.1% BSA and diluted to 5 mg/mL in SIF. Sodium nitroprusside (SNP) (Sigma-Aldrich) was prepared in sterile phosphate buffered saline (PBS) at the time of use and was kept away from light. For dural injections, mice received […] injections of either IL-6, anisomycin, 4EGI-1, SIF, or a combination of IL-6 and anisomycin or IL-6 and 4EGI-1 for acute testing. For testing the ability of mice to prime to the initial stimulus in these dural injection experiments, […] of SIF pH 7.0 were administered onto the dura. […]

[1] = local administration; cited from earlier work
hindpaw = details: local co-injection with IL-6 into the hindpaw, previous study; cited from earlier work
A549 cells = details: cited from earlier work
Jurkat cells = details: cited from earlier work
TNFa mRNA = details: cited from earlier work
[2] = test system: TNFa, IL-6, IL-10 and CXCL10 production in TMD8, OCI-Ly3 and HBL1 DLBCL cell lines; details: cited from earlier work
[3] = in vivo; cited from earlier work
DLBCL cell lines = details: multiple DLBCL cell lines; cited from earlier work
[4] = test system: eIF4E phosphorylation at serine 209; details: in vitro, tumor cell lines, dose-dependent; read-out: IC50 for reduction of eIF4E phosphorylation at serine 209; cited from earlier work
[5] = test system: models which harbor activating MyD88 mutations; details: in vivo, multiple models harboring activating MyD88 mutations; cited from earlier work
mice = details: Moy et al. (2017); cited from earlier work
Candida Pkc1 = target: T1, Candida Pkc1 (Candida albicans, UniProt P43057); details: cited from earlier work
T1 sequence (P43057 1-1097): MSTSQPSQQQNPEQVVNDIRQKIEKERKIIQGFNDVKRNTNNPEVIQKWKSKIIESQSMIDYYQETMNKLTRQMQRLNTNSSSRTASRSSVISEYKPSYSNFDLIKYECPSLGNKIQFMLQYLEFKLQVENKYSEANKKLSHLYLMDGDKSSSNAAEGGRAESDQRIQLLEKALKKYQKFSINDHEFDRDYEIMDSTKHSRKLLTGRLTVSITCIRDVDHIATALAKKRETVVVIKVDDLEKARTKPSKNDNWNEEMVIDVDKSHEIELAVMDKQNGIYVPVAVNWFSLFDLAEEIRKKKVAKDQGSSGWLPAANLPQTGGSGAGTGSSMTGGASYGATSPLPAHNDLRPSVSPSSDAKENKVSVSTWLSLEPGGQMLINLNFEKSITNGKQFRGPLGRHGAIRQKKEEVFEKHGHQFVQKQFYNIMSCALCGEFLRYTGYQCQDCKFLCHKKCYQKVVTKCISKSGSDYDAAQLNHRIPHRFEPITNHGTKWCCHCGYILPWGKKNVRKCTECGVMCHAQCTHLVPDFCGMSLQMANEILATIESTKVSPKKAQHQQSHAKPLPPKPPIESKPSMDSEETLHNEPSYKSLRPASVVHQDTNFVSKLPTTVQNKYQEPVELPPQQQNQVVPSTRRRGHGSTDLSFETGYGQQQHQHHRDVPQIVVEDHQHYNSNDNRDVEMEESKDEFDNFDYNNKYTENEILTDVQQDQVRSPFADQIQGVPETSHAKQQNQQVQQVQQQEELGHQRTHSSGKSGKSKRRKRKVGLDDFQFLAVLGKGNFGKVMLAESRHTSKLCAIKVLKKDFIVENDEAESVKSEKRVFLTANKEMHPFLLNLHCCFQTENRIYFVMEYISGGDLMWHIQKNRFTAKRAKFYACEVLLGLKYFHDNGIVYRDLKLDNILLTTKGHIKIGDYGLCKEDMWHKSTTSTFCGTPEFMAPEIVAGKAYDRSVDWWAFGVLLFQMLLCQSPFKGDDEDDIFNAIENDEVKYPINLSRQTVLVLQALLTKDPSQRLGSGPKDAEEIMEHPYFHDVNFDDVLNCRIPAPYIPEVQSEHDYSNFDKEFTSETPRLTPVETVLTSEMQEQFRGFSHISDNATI

hyperglycemic mice = details: cited from earlier work

## COc1ccc(C[C@H]2NC[C@H](O)[C@H]2OC(C)=O)cc1 [anisomycin]
Female ICR mice
  hyperalgesic priming: response to second dural stimulus SIF pH 7.0: did not respond to the low pH
  acute facial mechanical hypersensitivity after dural IL-6: only minor differences
[1]
  mechanical hypersensitivity and injury-induced changes in nociceptor excitability: reduces
hindpaw
  acute mechanical hypersensitivity after IL-6 into the hindpaw: prevented

## O=C(O)C(Cc1ccccc1[N+](=O)[O-])=NNc1nc(-c2ccc(Cl)c(Cl)c2)cs1 [4EGI-1]
Female ICR mice
  hyperalgesic priming: response to second dural stimulus SIF pH 7.0: robustly blocked
  acute facial mechanical hypersensitivity after dural IL-6: partially attenuated
[1]
  mechanical hypersensitivity and injury-induced changes in nociceptor excitability: reduces
A549 cells
  activity against A549 cells: exhibits activity
Jurkat cells
  activity against Jurkat cells: exhibits activity

## Cc1cc(Nc2cc(N)ncn2)c(=O)n2c1C(=O)NC21CCCCC1 [eFT508]
TNFa mRNA
  decrease in TNFa mRNA half-life: 2 fold
[2]
  production of pro-inflammatory cytokines including TNFa, IL-6, IL-10 and CXCL10: dose-dependent decreases
[3]
  oral bioavailability: orally bioavailable
DLBCL cell lines
  anti-proliferative activity: anti-proliferative activity
[4]
  IC50: 2 to 16 nM
[5]
  anti-tumor activity: significant anti-tumor activity

## CC(=O)C1=C(O)C=C2Oc3c(C(N)=O)c(O)cc(O)c3[C@]2(C)C1=O [Cercosporamide]
mice
  cold hypersensitivity induced by peripheral nerve injury: reduced
[3]
  oral bioavailability: orally bioavailable
Candida Pkc1
  IC50: 25 nM
Hyperglycemic mice
  plasma glucose: lowering of plasma glucose
